Peptide text beside a SMILES is read from it.
Legend:
3T3-L1 Adipocytes = experiment: Free fatty acid levels in cultured mouse 3T3-L1 adipocytes, isoproterenol stimulated (Example 2); assay type: cell-based; details: test peptides 25 μM; isoproterenol 1 nM
How it was run: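 Release of free fatty acids, read at 540 nm, was stimulated with 1 nM isoproterenol for 3 h in mouse 3T3-L1 adipocytes (12–17 days of differentiation). Cells were pre-exposed to 25 μM peptide for 18–20 h plus 1 h, with peptide kept in during stimulation. Values are background-subtracted and normalised to isoproterenol alone.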

[1] = Stability in mouse plasma, peptides 10 uM (Example 15); assay type: in vitro ADME; details: mouse plasma 37° C., peptide 10 uM; for remaining at 0.25 h, 10 uM / remaining at 0.5 h, 10 uM / remaining at 1 h, 10 uM / remaining at 2 h, 10 uM / remaining at 3 h, 10 uM: pooled mouse plasma; for remaining at 0.25 h, 10 uM: 15 min, read-out: % Remaining at Each Time Point: 15 min; for remaining at 0.5 h, 10 uM: 30 min, read-out: % Remaining at Each Time Point: 30 min; for remaining at 1 h, 10 uM: 60 min, read-out: % Remaining at Each Time Point: 60 min; for remaining at 2 h, 10 uM: 120 min, read-out: % Remaining at Each Time Point: 120 min; for remaining at 3 h, 10 uM: 180 min, read-out: % Remaining at Each Time Point: 180 min
Description: Peptides (10 uM) were incubated in pooled mouse plasma at 37° C. and samples were removed and immediately analyzed for the concentration of intact peptide by LC/MS/MS over the course of 3 hours. The percent of peptide remaining in plasma at each time point was calculated relative to the initial peak area (Table 13).

Row | Compound | Free Fatty Acid Levels in 3T3-L1 Adipocytes Expressed as a Percent of Isoproterenol Control: Percent of Control Value (3T3-L1 Adipocytes) [%] | % Remaining at Each Time Point: 0 min [1] [%] | remaining at 0.25 h, 10 uM [1] [%] | remaining at 0.5 h, 10 uM [1] [%] | remaining at 1 h, 10 uM [1] [%] | remaining at 2 h, 10 uM [1] [%] | remaining at 3 h, 10 uM [1] [%]
1 | CC[C@H](C)[C@H](NC(=O)[C@H](Cc1ccc(O)cc1)NC(=O)[C@H](CC(N)=O)NC(=O)[C@H](CCSC)NC(=O)[C@H](CCC(=O)O)NC(=O)[C@H](CCC(N)=O)NC(=O)[C@H](Cc1c[nH]c2ccccc12)NC(=O)[C@H](CCCNC(=N)N)NC(=O)[C@@H](C)N)C(=O)N[C@@H](Cc1ccccc1)C(=O)N[C@@H](Cc1ccc(O)cc1)C(=O)N1CCC[C@H]1C(=O)N[C@@H](CCCNC(=N)N)C(=O)O [compound 288] (HELM PEPTIDE1{[dA].R.W.Q.E.M.N.Y.I.F.Y.P.R}$$$$V2.0) | 93.0 | 100 | 90 | 81.9 | 77.4 | 69.2 | 67
2 | CCCCCCCCCCCCCCCC(=O)N[C@@H](CCSC)C(=O)N[C@@H](CCCNC(=N)N)C(=O)N[C@@H](Cc1c[nH]c2ccccc12)C(=O)N[C@@H](CCC(N)=O)C(=O)N[C@@H](CCC(=O)O)C(=O)N[C@@H](CCSC)C(=O)N[C@@H](CC(N)=O)C(=O)N[C@@H](Cc1ccc(O)cc1)C(=O)N[C@H](C(=O)N[C@@H](Cc1ccccc1)C(=O)N[C@@H](Cc1ccc(O)cc1)C(=O)N1CCC[C@H]1C(=O)N[C@@H](CCCNC(=N)N)C(=O)O)[C@@H](C)CC [compound 289] (HELM PEPTIDE1{[CCCCCCCCCCCCCCCC(=O)[*:2]].M.R.W.Q.E.M.N.Y.I.F.Y.P.R}$$$$V2.0) | 94.5 | 100 | 82.9 | 74.6 | 78.4 | 77.2 | 75.6
3 | Ac-MRWQEMNYIFYPR-OH [compound 286] | 94.8 | 100 | 88.4 | 74.7 | 57.1 | 36.4 | 25.9
4 | H-MRWQEMGYIFYPKKLR-OH [compound 123] | 58.8 |  |  |  |  |  | 
5 | H-MRWQEMGYIFYPRELR-OH [compound 180] | 47.0 |  |  |  |  |  | 
6 | H-MRWQEMGYIFYPRKER-OH [compound 181] | 58.9 |  |  |  |  |  | 
7 | H-MRWQEMGYIFYPRKLE-OH [compound 182] | 36.6 |  |  |  |  |  | 
8 | H-MRWQEMGYIFYPRKLK-OH [compound 124] | 68.9 |  |  |  |  |  | 
9 | H-MRWQEMGYIFYPRRLR-OH [compound 125] | 50.2 |  |  |  |  |  | 
10 | H-MRWQEMNYIFYP-NH2 [compound 287] | 78.1 | 100 | 64 | 45.2 | 26.8 | 8.76 | 2.93
11 | H-MRWQEMNYIFYP-OH [compound 282] | 71.8 | 100 | 34.9 | 25.7 | 1.92 | 0.41 | 0.29
12 | H-QEMGYIFYPRKL-OH [compound 270] | 66.9 | 100 | 13.8 | 3.22 | 0.59 | 0.36 | 0.21
13 | H-RWQEENYIAYPR-OH [compound 260] | 75.9 | 100 | 79.4 | 68.8 | 53.1 | 35.7 | 35.9
14 | H-RWQEEQYIAEPR-OH [compound 266] | 72.7 | 100 | 70.7 | 72.3 | 38.3 | 74.8 | 51.1
15 | H-RWQEEQYIAYPR-OH [compound 265] | 66.7 | 100 | 83.3 | 74.5 | 54.9 | 56 | 51.7
16 | H-RWQEEQYIFEPR-OH [compound 264] | 63.2 | 100 | 76.7 | 68.2 | 54.5 | 59.4 | 56.1
17 | H-RWQEMGYIFYPRKL-OH [compound 268] | 41.9 | 100 | 76.1 | 49.5 | 20.3 | 0.48 | 0
18 | H-RWQEMNYIAYPR-OH [compound 250] | 83.0 | 100 | 63.2 | 54.1 | 35.9 | 20 | 11.7
19 | H-RWQEMNYIFEPR-OH [compound 249] | 81.3 | 100 | 46.7 | 40.5 | 28.3 | 15.8 | 11.1
20 | H-RWQEMNYIFYPR-OH [compound 248] | 50.4 |  |  |  |  |  | 
21 | H-WQEMGYIFYPRKL-OH [compound 269] | 59.2 | 100 | 70 | 45.8 | 17.2 | 2.64 | 0.43
22 | H-WQEMNYIFYP-OH [compound 285] | 96.0 | 100 | 38.5 | 16.7 | 9.17 | 1.76 | 0.87
23 | H-WQEMNYIFYPR-OH [compound 284] | 97.1 | 100 | 75.3 | 60.1 | 41.1 | 22.1 | 13.7

Reference: patent publication US11753445B2, “Therapeutic peptides” (COHBAR, INC., priority 2016, dated 2023)
